Experimental data from US11051515B2, “3-acyl-benzamides and their use as herbicides” (Bayer Aktiengesellschaft, priority 2017, dated 2021).

Tests used:
[1] = tested on: ALOMY; assay: Pre-emergence action against ALOMY; format: in vivo, Alopecurus myosuroides; settings: dosage 320 g/ha, pre-emergence, scored visually after 3 weeks vs untreated controls, 100% = plants have died, 0% = like control plants
Summary of the method: (§1)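 Seeds sown in sandy loam in wood-fiber pots and covered with soil. Greenhouse growth; visual damage scored after 3 weeks versus untreated controls (100% = dead, 0% = like control).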

[2] = tested on: CYPES; assay: Pre-emergence action against CYPES; format: in vivo, Cyperus esculentus; settings: pre-emergence, dosage 320 g/ha, scored visually after 3 weeks vs untreated controls
Summary of the method: as §1

[3] = tested on: ECHCG; assay: Pre-emergence action against ECHCG; format: in vivo, Echinochloa crus-galli; settings: pre-emergence, dosage 320 g/ha, scored visually after 3 weeks vs untreated controls
Summary of the method: as §1

[4] = tested on: SETVI; assay: Pre-emergence action against SETVI; format: in vivo, Setaria viridis; settings: pre-emergence, dosage 320 g/ha, scored visually after 3 weeks vs untreated controls
Summary of the method: as §1

[5] = tested on: ABUTH; assay: Pre-emergence action against ABUTH; format: in vivo, Abutilon theophrasti; settings: pre-emergence, dosage 320 g/ha, scored visually after 3 weeks vs untreated controls
Summary of the method: as §1

[6] = tested on: AMARE; assay: Pre-emergence action against AMARE; format: in vivo, Amaranthus retroflexus; settings: pre-emergence, dosage 320 g/ha, scored visually after 3 weeks vs untreated controls
Summary of the method: as §1

[7] = tested on: MATIN; assay: Pre-emergence action against MATIN; format: in vivo, Matricaria inodora; settings: Dosage 320 g/ha, pre-emergence
Summary of the method: as §1

[8] = tested on: PHBPU; assay: Pre-emergence action against PHBPU; format: in vivo, Pharbitis purpurea; settings: Dosage 320 g/ha, pre-emergence
Summary of the method: as §1

[9] = tested on: POLCO; assay: Pre-emergence action against POLCO; format: in vivo, Polygonum convolvulus; settings: Dosage 320 g/ha, pre-emergence
From the text: Seeds of monocotyledonous and dicotyledonous weed plants and crop plants are laid out in sandy loam soil in wood-fiber pots and covered with soil. The compounds of the invention, formulated in the form of wettable powders (WP) or as emulsion concentrates (EC), are then applied to the surface of the covering soil in the form of an aqueous suspension or emulsion at a water application rate equating to […], with addition of 0.2% wetting agent. After the treatment, the pots are placed in a greenhouse and kept under good growth conditions for the trial plants. The damage to the test plants is scored visually after a test period of 3 weeks by comparison with untreated controls (herbicidal activity in percent (%): 100% activity=the plants have died, 0% activity=like control plants).

[10] = tested on: STEME; assay: Pre-emergence action against STEME; format: in vivo, Stellaria media; settings: Dosage 320 g/ha, pre-emergence
Summary of the method: as §1

[11] = tested on: VIOTR; assay: Pre-emergence action against VIOTR; format: in vivo, Viola tricolor; settings: Dosage 320 g/ha, pre-emergence
Summary of the method: as §1

[12] = tested on: VERPE; assay: Pre-emergence action against VERPE; format: in vivo, Veronica persica; settings: Dosage 320 g/ha, pre-emergence
Summary of the method: as §1

[13] = tested on: CYPES; assay: Post-emergence action against CYPES; format: in vivo, Cyperus esculentus; settings: post-emergence, dosage 80 g/ha, visual assessment about 3 weeks after treatment vs untreated controls
Summary of the method: (§2)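 Weeds grown in sandy loam in greenhouse, treated at one-leaf stage (2–3 weeks after sowing) with WP or EC formulations sprayed as aqueous suspension/emulsion at 600 to […] water with 0.2% wetting agent. Visual rating after about 3 weeks versus untreated controls, as % herbicidal action (100% = plants dead, 0% = like control).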

[14] = tested on: ECHCG; assay: Post-emergence action against ECHCG; format: in vivo, Echinochloa crus-galli; settings: post-emergence, dosage 80 g/ha, visual assessment about 3 weeks after treatment vs untreated controls
Summary of the method: as §2

[15] = tested on: SETVI; assay: Post-emergence action against SETVI; format: in vivo, Setaria viridis; settings: post-emergence, dosage 80 g/ha, visual assessment about 3 weeks after treatment vs untreated controls
Summary of the method: as §2

[16] = tested on: ABUTH; assay: Post-emergence action against ABUTH; format: in vivo, Abutilon theophrasti; settings: post-emergence, dosage 80 g/ha, visual assessment about 3 weeks after treatment vs untreated controls
Summary of the method: as §2

[17] = tested on: MATIN; assay: Post-emergence action against MATIN; format: in vivo, Matricaria inodora; settings: post-emergence, dosage 80 g/ha, visual assessment about 3 weeks after treatment vs untreated controls
Summary of the method: as §2

[18] = tested on: PHBPU; assay: Post-emergence action against PHBPU; format: in vivo, Pharbitis purpurea; settings: post-emergence, dosage 80 g/ha
Summary of the method: as §2

[19] = tested on: POLCO; assay: Post-emergence action against POLCO; format: in vivo, Polygonum convolvulus; settings: post-emergence, dosage 80 g/ha
Description: Seeds of monocotyledonous and dicotyledonous weed and crop plants are laid out in sandy loam soil in wood-fiber pots, covered with soil and cultivated in a greenhouse under good growth conditions. 2 to 3 weeks after sowing, the test plants are treated at the one-leaf stage. The compounds of the invention, formulated in the form of wettable powders (WP) or as emulsion concentrates (EC), are then sprayed onto the green parts of the plants in the form of an aqueous suspension or emulsion at a water application rate equating to […], with addition of 0.2% wetting agent. After the test plants have been left to stand in the greenhouse under optimal growth conditions for about 3 weeks, the action of the preparations is assessed visually in comparison to untreated controls (herbicidal action in percent (%): 100% activity=the plants have died, 0% activity=like control plants). […] At the same time, inventive compounds leave Gramineae crops such as barley, wheat, rye, millet/Sorghum, corn or rice virtually undamaged when applied post-emergence, even at high active ingredient dosages. In addition, some substances are also harmless to dicotyledonous crops such as soya, cotton, oilseed rape, sugar beet or potatoes. Some of the compounds according to the invention have high selectivity and are therefore suitable for controlling unwanted vegetation in agricultural crops by the post-emergence method. The data of Tables B18 to B34 below illustrate, in an exemplary manner, the […] herbicidal action of the compounds according to the invention, the herbicidal activity being stated in percent.

[20] = tested on: STEME; assay: Post-emergence action against STEME; format: in vivo, Stellaria media; settings: post-emergence, dosage 80 g/ha
Summary of the method: as §2

[21] = tested on: VIOTR; assay: Post-emergence action against VIOTR; format: in vivo, Viola tricolor; settings: post-emergence, dosage 80 g/ha
Summary of the method: as §2

[22] = tested on: VERPE; assay: Post-emergence action against VERPE; format: in vivo, Veronica persica; settings: dosage 80 g/ha
Summary of the method: as §2

[23] = tested on: AMARE; assay: Post-emergence action against AMARE; format: in vivo, Amaranthus retroflexus; settings: post-emergence, dosage 80 g/ha, visual assessment about 3 weeks after treatment vs untreated controls
Summary of the method: as §2

[24] = tested on: AVEFA; assay: Pre-emergence action against AVEFA; format: in vivo, Avena fatua; settings: dosage 320 g/ha, scored visually after 3 weeks vs untreated controls
Summary of the method: as §1

SMILES	Pre-emergence action against ALOMY (herbicidal activity in percent) [1] [%]	Pre-emergence action against CYPES (herbicidal activity) [2] [%]	Pre-emergence action against ECHCG (herbicidal activity) [3] [%]	SETVI (Table B8, pre-emergence herbicidal activity) [4] [%]	Pre-emergence action against ABUTH (herbicidal activity) [5] [%]	Pre-emergence action against AMARE (herbicidal activity) [6] [%]	Pre-emergence action against MATIN [7] [%]	Pre-emergence action against PHBPU [8] [%]	Pre-emergence action against POLCO [9] [%]	Pre-emergence action against STEME [10] [%]	Pre-emergence action against VIOTR [11] [%]	Pre-emergence action against VERPE [12] [%]	Post-emergence action against ECHCG (herbicidal action in percent) [14] [%]	Post-emergence action against SETVI (herbicidal action in percent) [15] [%]	Post-emergence action against ABUTH (herbicidal action in percent) [16] [%]	Post-emergence action against MATIN (herbicidal action in percent) [17] [%]	Post-emergence action against PHBPU [18]	Post-emergence action against POLCO [19]	Post-emergence action against STEME [20]	Post-emergence action against VIOTR [21]	further results
CCCn1nnnc1NC(=O)c1ccc(C(F)(F)F)c(C(C)=O)c1OC [3-48]	90	90	100	100	100	100	100	80	80	90	100	90	90	80	100	100	100	80	100	100	Post-emergence action against CYPES (herbicidal action in percent) [13]: 90%; Post-emergence action against VERPE [22]: 80
CC(=O)c1c(C)ccc(C(=O)Nc2nnnn2C)c1C [1-1]																					pest or weed control at 320 g/ha ([1]; Alopecurus myosuroides, 504 h, read-out: Pre-emergence action against ALOMY (herbicidal activity in percent)): 80%; pest or weed control at 320 g/ha ([3]; Echinochloa crus-galli, 504 h, read-out: Pre-emergence action against ECHCG (herbicidal activity)): 90%; pest or weed control at 320 g/ha ([4]; Setaria viridis, 504 h, read-out: SETVI (Table B8, pre-emergence herbicidal activity)): 90%; pest or weed control at 320 g/ha ([5]; Abutilon theophrasti, 504 h, read-out: Pre-emergence action against ABUTH (herbicidal activity)): 90%; pest or weed control at 320 g/ha ([6]; Amaranthus retroflexus, 504 h, read-out: Pre-emergence action against AMARE (herbicidal activity)): 100%; pest or weed control at 320 g/ha ([7]; Tripleurospermum inodorum, 504 h): 100%; pest or weed control at 320 g/ha ([9]; Fallopia convolvulus, 504 h): 80%; pest or weed control at 320 g/ha ([10]; Stellaria media, 504 h): 90%; pest or weed control at 320 g/ha ([11]; Viola tricolor, 504 h): 100%; pest or weed control at 80 g/ha ([14]; Echinochloa crus-galli, 504 h, read-out: Post-emergence action against ECHCG (herbicidal action in percent)): 100%; pest or weed control at 80 g/ha ([16]; Abutilon theophrasti, 504 h, read-out: Post-emergence action against ABUTH (herbicidal action in percent)): 100%; pest or weed control at 80 g/ha ([23]; Amaranthus retroflexus, 504 h, read-out: Post-emergence action against AMARE (herbicidal action in percent)): 100%; pest or weed control at 80 g/ha ([17]; Tripleurospermum inodorum, 504 h, read-out: Post-emergence action against MATIN (herbicidal action in percent)): 80%; pest or weed control at 80 g/ha ([18]; Ipomoea purpurea, 504 h): 90%; pest or weed control at 80 g/ha ([19]; Fallopia convolvulus, 504 h): 80%; pest or weed control at 80 g/ha ([20]; Stellaria media, 504 h): 100%; pest or weed control at 80 g/ha ([21]; Viola tricolor, 504 h): 100%
CCn1nnnc1NC(=O)c1ccc(C)c(C(C)=O)c1C [2-1]	90	80	90	90	90	100	90		90	90	100		100	80	80	90	90	100	80	100	Post-emergence action against AMARE (herbicidal action in percent) [23]: 100%
CCCn1nnnc1NC(=O)c1ccc(C(F)(F)F)c(C(C)=O)c1Br [3-195]	80	90	100	100	100	100	100	90		90	100	100	90	90		90	90	90	90	90	Pre-emergence action against AVEFA (herbicidal activity) [24]: 90%; Post-emergence action against CYPES (herbicidal action in percent) [13]: 80%
CCn1nnnc1NC(=O)c1ccc(Cl)c(C(=O)C(C)C)c1Cl [2-280]	100		100		100	100	100		80	90		90	90	90	90	90	100	80	100	90	Post-emergence action against AMARE (herbicidal action in percent) [23]: 100%
